Test results as given in patent publication US5855906A, “Intravaginal drug delivery devices for the administration of 17β-oestradiol precursors” (priority 1994, dated 1999).
Converted amounts (≈) assume the structure as drawn.

Tests used:
[1] = In vitro release from rings of varying core length and apparent/standard k value (Crank's equation); assay type: physicochemical; set-up: Standard k: unit not given here; conditions: for k: in µg/day/mm; for Mean Daily Release (as precursor): 250 ml 1% (w/v) BKC
Excerpt: Precursor release from a cylindrical device of core design, which comprises a polymer matrix in the form of a core incorporating 17β-oestradiol precursor and a sheath surrounding the core, can be described by Crank's equation: [formula] in which R=precursor release rate (μg/day)
Crank's equation relates the precursor release rate (R), in sink conditions, to the solubility (C2 S) and diffusibility (D) of the precursor in the polymer matrix, its partition characteristics (π) between the polymer matrix and the dissolution medium; and the ring dimensions (l, b, a). For any given precursor in any given polymer matrix, CS, D and π will be constant and can be grouped together to form the composite constant, k:
The k value can be empirically derived using Crank's equation in the following manner: [formula]
The k value is dependent on core length for certain of the 17β-oestradiol precursors (see Example 6 hereinafter). Accordingly, the k value at a core length of 35 mm has been denoted "standard k" value hereinafter.
Intravaginal drug delivery devices in the form of rings were prepared, each with a ring geometry as described in Table 3, by following the General Method of Manufacture set out hereinabove.
The dissolution medium was changed daily, following the protocol set out hereinabove. Mean daily release rates from the second week of dissolution experiments were used to determine the apparent k values presented in Table 3.
It was, therefore, decided to determine k values at a core length of 35 mm and such k values are hereinafter referred to as "standard k" values.
The standard k value was determined from the mean daily release rates observed in Example 6. The dissolution medium of 1.0% (w/v) of an aqueous solution of benzalkonium chloride was used in respect of the various 17β-oestradiol precursors, so as to ensure sink conditions.

[2] = Aqueous solubility in distilled water at 20 °C; conditions: water
[3] = In vitro dissolution: mean daily release from full-length-core rings over up to 90 days in three media; assay type: physicochemical; conditions: for Mean Daily Release: 9 × 54 mm ring, core 141 × 2 mm, 37 °C, N = 4
Excerpt: In all cases the ring geometries comprise a ring of dimensions 9 mm (cross-sectional diameter)×54 mm (outer diameter) and containing a full length core (141 mm) of cross-sectional diameter 2 mm. […] The saline and benzalkonium chloride-containing media were chosen to ensure `sink conditions` in at least one medium for each intravaginal ring. It will be recognised by those skilled in the art that the term `sink conditions` refers to that set of experimental conditions in vitro which effectively simulates the active haemoperfusion that occurs in vivo, and which results in a maximum drug concentration gradient and maximum drug diffusion rate, at any given time, across the aqueous boundary layer. Thus, an in vitro dissolution experiment can be designed such that the solution solubility of the released drug in the dissolution medium is much greater than its bulk concentration in this medium at any given time, for example, by micellar drug solubilisation due to incorporation of a surfactant such as benzalkonium chloride (BKC), at a concentration above its critical micelle concentration. Thus, each ring was suspended by a thread in an individual closed flask containing the dissolution medium, maintained at a constant temperature of 37° C. The contents of the flask were gently agitated in order to prevent the occurrence of a hydrostatic layer on the surface of the ring. After 24 hours, the ring was removed and suspended in a flask of fresh dissolution medium of identical volume by a method identical to that previously described.

[4] = Silicone solubility at 37 °C in Dow Corning 360 medical fluid; assay type: physicochemical; conditions: organic solvent or mixture, Dow Corning 360 medical fluid, 37 °C, read-out: Silicone solubility
Description: Silicone solubility was determined at 37° C. in Dow Corning (Trade Mark) 360 medical fluid.

[5] = Stability during storage (observed in dissolution samples); conditions: dissolution medium samples
in vitro = conditions: human, blood
[6] = Plasma 17β-oestradiol in post-menopausal women with 60 μg intravaginal ring, 14 days (Example 10); conditions: 60 μg ring, over 14 days
[7] = Nominal in vitro daily release from intravaginal rings under sink conditions (1% w/v benzalkonium chloride, 37 °C); assay type: physicochemical; conditions: calculated as anhydrous 17β-oestradiol
Description: The nominal in vitro release rates set out in Table 1 for the rings of Examples 1-5 were determined under sink conditions of 1% (w/v) benzalkonium chloride. These release rates were determined in the following manner.
Each ring (n=4) was suspended in the dissolution medium in an individual flask which is then capped, placed in a suitable oven at 37° C. and shaken. The dissolution medium was changed every 24 hours (±30 minutes). An aliquot of the used dissolution medium was analysed by high performance liquid chromatography (HPLC) using reverse phase packing and UV detection (at 235 nm for 17β-oestradiol-3-acetate and for
. The sensitivity of the original and improved analytical methods is 5 μg/100 ml.

SMILES: CC(=O)Oc1ccc2c(c1)CC[C@@H]1[C@@H]2CC[C@]2(C)[C@@H](O)CC[C@@H]12 [17β-oestradiol-3-acetate]
- apparent k value versus core length ([1]; Table 3 rings, 1% (w/v) BKC): varies with core length
- Mean Daily Release ([1]; Table 4, 1.0% (w/v) BKC, core length 35 mm, n = 5): 236.66 µg/day
- Standard k ([1]; Table 4, core length 35 mm, 1.0% (w/v) BKC): 10.017
- k (standard k) ([1]; Table 5, core length 35 mm): 10.017 μg/day/mm
- k ([1]; core length 6 mm, 1% (w/v) BKC): 12.347
- Mean Daily Release (as precursor) ([1]; core length 6 mm, n = 5): 49.25 µg/day
- k ([1]; core length 12 mm, 1% (w/v) BKC): 11.517
- Mean Daily Release (as precursor) ([1]; core length 12 mm, n = 5): 91.88 µg/day
- k ([1]; core length 25 mm, 1% (w/v) BKC): 10.658
- Mean Daily Release (as precursor) ([1]; core length 25 mm, n = 5): 177.15 µg/day
- k ([1]; core length 35 mm, 1% (w/v) BKC): 10.017
- Mean Daily Release (as precursor) ([1]; core length 35 mm, n = 5): 236.66 µg/day
- solubility [2]: 3.8 µg/mL (≈ 12.1 µM)
- Mean Daily Release ([3]; 0.133% (w/v) BKC): 700 μg per day
- Mean Daily Release ([3]; 0.9% (w/v) saline): 350 μg per day
- Mean Daily Release ([3]; 1.0% (w/v) BKC): 850 μg per day
- release in vitro from intravaginal rings (in words) ([3]; BKC and saline media, ring geometry of Table 2): substantial release, in both BKC and in saline
- solubility [4]: 186 µg/mL (≈ 592 µM)
- stability during storage [5]: hydrolysis to 17β-oestradiol during storage
- half-life (in vitro): < 1 min
- mean increase in plasma 17β-oestradiol [6]: 117.98 pmol/L
- nominal in vitro daily release rate ([7]; "60 μg" ring, core 2×12 mm): 57.5 to 62.5 µg
- nominal in vitro daily release rate ([7]; "120 μg" ring, core 2×24 mm): 115 to 125 µg
- nominal in vitro daily release rate ([7]; "240 μg" ring, core 2×47 mm): 230 to 250 µg
